{"source": "patent US8765949B2", "about": "“CCR2 receptor antagonists and uses thereof” (Boehringer Ingelheim International GmbH, priority 2009, dated 2014)", "data": [{"molecular_target": "T1, CCR2 (Homo sapiens, UniProt P41597)", "T1 construct": "Membranes were prepared from THP-1 cells; endogenous in cells; host or cells: THP-1 (human acute monocytic leukaemia cells), membrane preparation", "T1 sequence (P41597 1-360 isoform P41597-2)": "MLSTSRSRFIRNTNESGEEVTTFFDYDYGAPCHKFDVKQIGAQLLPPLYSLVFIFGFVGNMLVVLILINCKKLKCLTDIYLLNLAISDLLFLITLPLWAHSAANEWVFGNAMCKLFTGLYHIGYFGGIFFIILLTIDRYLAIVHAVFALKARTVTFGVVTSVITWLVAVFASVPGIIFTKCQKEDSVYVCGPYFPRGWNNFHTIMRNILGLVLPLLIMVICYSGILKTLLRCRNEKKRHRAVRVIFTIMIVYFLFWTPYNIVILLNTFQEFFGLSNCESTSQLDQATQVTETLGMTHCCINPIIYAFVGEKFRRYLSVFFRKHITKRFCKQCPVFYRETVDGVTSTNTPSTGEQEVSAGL", "assay": "CCR2 receptor membrane binding assay ([125I]MCP-1, THP-1 membranes, SPA beads)", "details": "dissociation constant hKi; THP-1 cell membranes, [125I]MCP-1, bound radioactivity after 8 h", "method": "The above exemplary substances have been tested for binding to CCR2 using a binding assay as outlined herein below:\nTHP-1 cells (human acute monocytic leukaemia cells) were cultured under standardized conditions at 37° C. and 5% CO2 in a humidified incubator. THP-1 cells were cultivated in RPMI 1640 medium (Gibco 21875) containing 1% MEM-NEAA (Gibso 11140) 2 mM L-glutamine, 1.5 g/L sodium bicarbonate, 4.5 g/L glucose, 10 mM HEPES and 1.0 mM sodium pyruvate, 90%; 10% fetal calf serum (FCS Gibco 10500-064).\nMembranes were prepared from THP-1 cells. THP-1 cells were centrifuged at 300×g at 4° C. for 10 min. The cell pellet was resuspendet in Phosphate Buffer Saline (PBS, including 10 μM Pefabloc and a protease inhibitor mix ‘complete’, Boehringer Mannheim (1 tablet/50 ml)), to a concentration of […]. The membrane preparation was performed by disrupting the cells by nitrogen […] (at 50 bar, for 1 h) in a “Nitrogen Bombe” (Parr Instrument). Cell debris was removed by centrifugation (800×g at 4° C., 1 min). The supernatant was centrifuged at 80000×g, 4° C. for 30 min to sediment the cell membranes. Usually 50 mg of protein (Bradford assay) were yielded from 1×10E9 cells. The membranes were resuspendet in 25 mM HEPES, 25 mM MgCl2, 1 mM CaCl2, 10% Glycerine for storage in aliquots at −80° C. in 25 mM HEPES, 25 mM MgCl2, 1 mM CaCl2, 10% Glycerine and stored at −80° C.\nReceptor Membrane Binding Assay:\nPerkin Elmer NEX 332 Jod 125 MCP-1, Stock: 2200 Ci/mmol solved in 2000 μl assay buffer, stored at −20° C. THP-1 membrane were adjusted with 25 mM HEPES, pH 7.2; 5 mM MgCl2; 0.5 mM CaCl2; 0.2% BSA assay buffer to a concentration of 2.5 μg/15 μl. Amersham Biosciences PVT-WGA Beads (RPNQ0001) were adjusted with assay buffer to a concentration of 0.24 mg/30 μl. For preparation of the membrane-bead-suspension membranes and beads were incubated for 30 min at RT under rotation (60 rpm) with a ratio of 1:2. Test compounds dissolved in 100% DMSO to a concentration of 10 mM and are further diluted with 100% DMSO to 1 mM. All additional compound dilutions were obtained with assay buffer, final 1% DMSO. Compounds, membrane-bead-suspension and [125I]MCP-1 (ca. 25000 cpm/10 μl) were incubated. Bound radioactivity was determined by scintillation counter after 8 h. Determination of affinity of test compounds (dissociation constant hKi) is calculated by iterative fitting of experimental data using the “easy sys” program, which is based on law of mass action (Schittkowski K. (1994), Numerische Mathematik, Vol. 68, 129-142).", "units": {"Ki": "nM"}, "values": [{"compound": "COC1COCCC1NC1CCN(C(=O)c2ncnc(NCC3CCCC(c4ccc(C(F)(F)F)o4)O3)c2C)CC1", "note": "(stereo not drawn) [Example 28e]", "Ki": 20}, {"compound": "Cc1cccc([C@H]2CCC[C@@H](CNc3ncnc(C(=O)N4CCC(N5CCC(N(C)S(C)(=O)=O)CC5)CC4)c3C)O2)c1", "note": "[Example 23]", "Ki": 494}, {"compound": "CO[C@@H]1COCC[C@@H]1NC1CCN(C(=O)c2cc(NC[C@H]3CCC[C@@H](c4ccc(C)cc4)O3)nc(C(F)(F)F)n2)CC1", "note": "[Example 53i]", "Ki": 2}, {"compound": "Cc1ccc([C@@H]2CCC[C@H](CNc3ncnc(C(=O)N4CCC(N5CCC(N(C)S(C)(=O)=O)CC5)CC4)c3C)O2)cc1", "note": "[Example 17]", "Ki": 11}, {"compound": "COc1nc(NC[C@H]2CCC[C@@H](c3ccc(C(F)(F)F)cc3)O2)c(C)c(C(=O)N2CCC(N[C@@H]3CCOC[C@@H]3OC)CC2)n1", "note": "[Example 53ab]", "Ki": 1}, {"compound": "Cc1ccc(C2CCC[C@H](CNc3ncnc(C(=O)N4CCC(N5CCC(c6ccc(C(=O)O)cc6)C5)CC4)c3C)O2)cc1", "note": "(stereo partly drawn) [Example 58]", "Ki": 1130}, {"compound": "COc1nc(NC[C@H]2CCC[C@@H](c3ccc(C)cc3)O2)c(C)c(C(=O)N2CCC(N[C@@H]3CCOC[C@@H]3OC)CC2)n1", "note": "[Example 53z]", "Ki": 3}, {"compound": "Cc1ccc(C2CCC[C@H](CNc3ncnc(C(=O)N4CCC(N5CCCC(c6cccc(C(=O)O)c6)C5)CC4)c3C)O2)cc1", "note": "(stereo partly drawn) [Example 57]", "Ki": 1800}, {"compound": "CO[C@H]1COCC[C@H]1NC1CCN(C(=O)c2cc(NC[C@H]3CCC[C@@H](c4ccc(OC(F)(F)F)cc4)O3)ncn2)CC1", "note": "[Example 28l]", "Ki": 2}, {"compound": "CO[C@H]1COCC[C@H]1NC1CCN(C(=O)c2ncnc(NC[C@H]3CCC[C@@H](c4ccc(OC(F)(F)F)cc4)O3)c2C)CC1", "note": "[Example 53f]", "Ki": 12}, {"compound": "CO[C@@H]1COCC[C@@H]1NC1CCN(C(=O)c2nc(C)nc(NC[C@@H]3CCC[C@H](c4cccc(C)c4)O3)c2C)CC1", "note": "[Example 35]", "Ki": 96}, {"compound": "Cc1cccc([C@H]2CCC[C@@H](CNc3nc(C)nc(C(=O)N4CCC(N5CCC(N(C)S(C)(=O)=O)CC5)CC4)c3C)O2)c1", "note": "[Example 28]", "Ki": 658}, {"compound": "Cc1ccc([C@@H]2CCC[C@H](CNc3nc(C)nc(C(=O)N4CCC(N5CCC(N(C)S(C)(=O)=O)CC5)CC4)c3C)O2)cc1", "note": "[Example 18]", "Ki": 10}, {"compound": "COc1nc(NC[C@H]2CCC[C@@H](c3ccc(C)cc3)O2)cc(C(=O)N2CCC(N[C@H]3CCOC[C@H]3OC)CC2)n1", "note": "[Example 53n]", "Ki": 5}, {"compound": "CO[C@H]1COCC[C@H]1NC1CCN(C(=O)c2nc(C)nc(NC[C@H]3CCC[C@@H](c4cccc(C)c4)O3)c2C)CC1", "note": "[Example 50]", "Ki": 9}, {"compound": "CO[C@@H]1COCC[C@@H]1NC1CCN(C(=O)c2ncnc(NC[C@@H]3CCC[C@H](c4cccc(C)c4)O3)c2C)CC1", "note": "[Example 33]", "Ki": 148}, {"compound": "Cc1ccc([C@@H]2CCC[C@H](CNc3ncnc(C(=O)N4CCC(NC5CCOCC5F)CC4)c3C)O2)cc1", "note": "(stereo partly drawn) [Example 53v]", "Ki": 7}, {"compound": "CO[C@H]1COCC[C@H]1NC1CCN(C(=O)c2cc(NC[C@H]3CCC[C@@H](c4ccc(C)cc4)O3)ncn2)CC1", "note": "[Example 28h]", "Ki": 4}, {"compound": "COc1nc(NC[C@H]2CCC[C@@H](c3ccc(OC(F)(F)F)cc3)O2)cc(C(=O)N2CCC(N[C@H]3CCOC[C@H]3OC)CC2)n1", "note": "[Example 53r]", "Ki": 0.8}, {"compound": "CO[C@@H]1COCC[C@@H]1NC1CCN(C(=O)c2nccc(NC[C@H]3CCC[C@@H](c4ccc(C)cc4)O3)c2C)CC1", "note": "[Example 53k]", "Ki": 9}, {"compound": "CO[C@H]1COCC[C@H]1N(C)C1CCN(C(=O)c2ncnc(NC[C@H]3CCC[C@@H](c4ccc(C(F)(F)F)cc4)O3)c2C)CC1", "note": "[Example 54a]", "Ki": 5}, {"compound": "COC1CCN(C2CCN(C(=O)c3ncnc(NC[C@H]4CCC[C@@H](c5ccc(C(F)(F)F)cc5)O4)c3C)CC2)CC1", "note": "[Example 4]", "Ki": 26}, {"compound": "COC1CCN(C2CCN(C(=O)c3ncnc(NC[C@@H]4CCC[C@H](c5cccc(C(F)(F)F)c5)O4)c3C)CC2)CC1", "note": "[Example 3]", "Ki": 203}, {"compound": "Cc1c(NC[C@@H]2CCC[C@H](c3ccccc3)O2)ncnc1C(=O)N1CCC(N2CCC(N(C)S(C)(=O)=O)CC2)CC1", "note": "(single isomer, unassigned) [Example 12]", "Ki": 27}]}]}
